Results: paper PMC11555678, “Improved Broad Spectrum Antifungal Drug Synergies with Cryptomycin, a Cdc50-Inspired Antifungal Peptide” (ACS Infectious Diseases, 2024)

Columns and labels:
C. neoformans H99 [1] = assay type: cell-based, Cryptococcus neoformans; details: (FITC)KKOO in combination with AMB
Experimental: All microdilution assays with fungi were carried out in accordance with CLSI protocols from M27 for yeasts and M38 for filamentous fungi, respectively, unless otherwise specified.[64],[65] Briefly, 96-well plates were charged with RPMI1640 media, with operating volume in the first column, 200 μL, and half operating volume, 100 μL, in the remaining wells. Drug stock solution in DMSO was aliquoted into the first well in each row. Half of the volume in the dosed well was serially diluted 2-fold until column 11. Column 11 was used as the negative growth control, and column 12 was used as the positive growth control. ON yeast cultures in YPD were washed twice in DD-H2O, resuspended in PBS, and adjusted to 5000 cfu/mL in RPMI. The 96-well plate was inoculated with 100 μL aliquots of cell suspension per well. […]
To assess drug synergy, the initial media charged to the plate contained the peptide at twice the final operating concentration; the remaining processing steps were identical to the MIC experiment. Upon addition of 100 μL of inoculant, the final operating concentration was achieved. Control MIC plates were prepared alongside drug synergy plates to account for the day-to-day variability in any individual MIC. FIC index is computed using eq 1. All MIC assays and drug synergy assays were completed with two technical replicates per 96-well plate and a minimum of two biological replicates per drug combination. If a difference in MIC between the two technical replicates on the plate were observed, only the higher concentration was reported as the MIC to reduce the possibility of type 1 error (false positive) [drawing 1] 1

C. neoformans cdc50Δ = assay: microbe, parasite or virus in culture; assay type: cell-based, Cryptococcus neoformans; details: Table S1; unit and conditions not given (MICs elsewhere in μg/mL)
Experimental: (§1) All microdilution assays with fungi were carried out in accordance with CLSI protocols from M27 for yeasts and M38 for filamentous fungi, respectively, unless otherwise specified.[64],[65] Briefly, 96-well plates were charged with RPMI1640 media, with operating volume in the first column, 200 μL, and half operating volume, 100 μL, in the remaining wells. Drug stock solution in DMSO was aliquoted into the first well in each row. Half of the volume in the dosed well was serially diluted 2-fold until column 11. Column 11 was used as the negative growth control, and column 12 was used as the positive growth control. ON yeast cultures in YPD were washed twice in DD-H2O, resuspended in PBS, and adjusted to 5000 cfu/mL in RPMI. The 96-well plate was inoculated with 100 μL aliquots of cell suspension per well. Plates were incubated at 37 °C for 2 days.

C. neoformans H99 [2] = assay: microbe, parasite or virus in culture; assay type: cell-based, Cryptococcus neoformans; details: Table S1; unit and conditions not given (MICs elsewhere in μg/mL)
Experimental: as §1

C. glabrata 2001 = assay: microbe, parasite or virus in culture; assay type: cell-based, Candida glabrata; details: Table S1; unit and conditions not given (MICs elsewhere in μg/mL)
Experimental: as §1

C. albicans SC5413 = assay: microbe, parasite or virus in culture; assay type: cell-based, Candida albicans; details: Table S1; unit and conditions not given (MICs elsewhere in μg/mL)
Experimental: as §1

## Myristic acid {Dap(FITC)}WGGIOONYA [(FITC)KKOO, FITC labeled version of KKOO]
C. neoformans H99 [1]
  FIC index: < 0.5
C. neoformans cdc50Δ
  MIC (SAR screen peptides): 128
C. neoformans H99 [2]
  MIC (SAR screen peptides): > 128

## WGGIAANYA [KKAA, alanine substituted peptide]
C. neoformans cdc50Δ
  MIC (SAR screen peptides): > 128
C. glabrata 2001
  MIC (SAR screen peptides): > 128

## WGGIAKNYA [K5A, alanine substituted peptide]
C. neoformans cdc50Δ
  MIC (SAR screen peptides): > 128
C. glabrata 2001
  MIC (SAR screen peptides): > 128

## WGGIKANYA [K6A, alanine substituted peptide]
C. neoformans cdc50Δ
  MIC (SAR screen peptides): > 128
C. glabrata 2001
  MIC (SAR screen peptides): > 128

## WGGIKONYA [K6O, single ornithine-substituted AW9-Ma derivative]
C. neoformans cdc50Δ
  MIC (SAR screen peptides): 4
C. neoformans H99 [2]
  MIC (SAR screen peptides): 32
C. albicans SC5413
  MIC (SAR screen peptides): 32
C. glabrata 2001
  MIC (SAR screen peptides): 32

## WGGIOKNYA [K5O, single ornithine-substituted AW9-Ma derivative]
C. neoformans cdc50Δ
  MIC (SAR screen peptides): 8
C. neoformans H99 [2]
  MIC (SAR screen peptides): > 128
C. glabrata 2001
  MIC (SAR screen peptides): > 128

## WGGIOONYA [KKOO-NHMe, C′ methylamide version of KKOO]
C. neoformans cdc50Δ
  MIC (SAR screen peptides): 4
C. neoformans H99 [2]
  MIC (SAR screen peptides): 8
C. albicans SC5413
  MIC (SAR screen peptides): 16
C. glabrata 2001
  MIC (SAR screen peptides): 16

## WGGIOONY{D-Ala} [A9a, D-Ala9 epimer of KKOO]
C. neoformans cdc50Δ
  MIC (SAR screen peptides): 4
C. neoformans H99 [2]
  MIC (SAR screen peptides): > 128
C. albicans SC5413
  MIC (SAR screen peptides): > 128
C. glabrata 2001
  MIC (SAR screen peptides): > 128

## WGGIOO{D-Asn}YA [N7n, D-Asn7 epimer of KKOO]
C. neoformans cdc50Δ
  MIC (SAR screen peptides): 8
C. neoformans H99 [2]
  MIC (SAR screen peptides): 32
C. albicans SC5413
  MIC (SAR screen peptides): > 128
C. glabrata 2001
  MIC (SAR screen peptides): > 128

## WGGIO{D-Orn}NYA [O6o, D-Orn6 epimer of KKOO]
C. neoformans cdc50Δ
  MIC (SAR screen peptides): 4
C. neoformans H99 [2]
  MIC (SAR screen peptides): 16
C. albicans SC5413
  MIC (SAR screen peptides): > 128
C. glabrata 2001
  MIC (SAR screen peptides): > 128

## WGG{D-Ile}OONYA [I4i, D-Ile4 epimer of KKOO]
C. neoformans cdc50Δ
  MIC (SAR screen peptides): 4
C. neoformans H99 [2]
  MIC (SAR screen peptides): 16
C. albicans SC5413
  MIC (SAR screen peptides): > 128
C. glabrata 2001
  MIC (SAR screen peptides): 64

## W{Hyp}GIOONYA [G2HYP, hydroxyproline at position 2, C′ NH2]
C. neoformans cdc50Δ
  MIC (SAR screen peptides): 4
C. neoformans H99 [2]
  MIC (SAR screen peptides): 8
C. albicans SC5413
  MIC (SAR screen peptides): 16
C. glabrata 2001
  MIC (SAR screen peptides): 16

## {D-Trp}GGIOONYA [W1w, D-Trp1 epimer of KKOO]
C. neoformans cdc50Δ
  MIC (SAR screen peptides): 4
C. neoformans H99 [2]
  MIC (SAR screen peptides): 16
C. albicans SC5413
  MIC (SAR screen peptides): > 128
C. glabrata 2001
  MIC (SAR screen peptides): 32
